Reference: US20240130368A1, “HERBICIDAL COMPOSITION” (Nippon Soda Co., Ltd., priority 2021, published 2024)

Experiments:
Assay type in all cases: in vivo
Zea mays = assay: Test Example 4: foliar spraying treatment, herbicidal effect from above ground weight (useful plant); conditions: Compound (I-3) alone, 63 gai/ha, 3 weeks after spraying
Protocol: (§1) POA allylphenyl ether (4.1 parts by weight), POE-POP glycol (1 part by weight), POE sorbitan laurate (0.8 parts by weight), glycerin (2.6 parts by weight), dimethylformamide (65.9 parts by weight), N-methylpyrrolidone (5.1 parts by weight), cyclohexanone (15.4 parts by weight), and aromatic hydrocarbons (5.1 parts by weight) were mixed and dissolved to prepare an emulsion. The active ingredient (4 mg) of the composition of the present invention was dissolved in this emulsion (100 μL) to prepare a test emulsion. It should be noted that POA means “polyoxyalkylene”, POE means “polyoxyethylene”, and POP means “polyoxypropylene”.
A 300 cm^2 pot was filled with soil, and seeds of Zea mays, Setaria faberi, Sorghum halepense, Brachiaria platyphylla, Amaranthus palmeri, Senna obtusifolia and Ipomoea hederacea were sown into the surface layer, and then grown in a greenhouse after being covered lightly with soil. When each plant grew to a plant height of 7 to 11 cm, it was used for the test. The test emulsion was diluted so that the amount of the active ingredient became a predetermined amount, and sprayed on the foliage with a small sprayer at a spray water volume of 250 L per hectare.
(§2) For the evaluation of the herbicidal effects, the above ground weights of weeds in the untreated and treated areas were measured for each weed 3 weeks after spraying treatment, and the herbicidal effect (%) was calculated by the following calculation formula.
In addition, the expected values of the herbicidal effects were calculated from the herbicidal effects in a case where the compound (I) alone was applied and the herbicidal effects in a case where the compound (II) alone was applied by using the Colby's formula (Colby, S. R., Calculating synergistic and antagonistic responses of herbicide combinations, Weeds, 15, pp. 20-22 (1967)). […]

Abutilon theophrasti = assay: Test Example 3: seeds on filter paper moistened with chemical solution, herbicidal effect visually evaluated; conditions: Compound (I-3) alone, 6 days after the treatment
Protocol: The compound (I) or compound (II) was prepared into a 5% emulsion using DMF (containing 1.5% Tween) and diluted with water to a prescribed dosage concentration. Commercially available preparations were dissolved in water and adjusted to a prescribed dosage concentration.
Seeds were soaked in 0.6% sodium hypochlorite for a predetermined time for surface sterilization and washed with water for use (seed disinfection). Seeds of Ambrosia artemisiifolia were used for the test.
Filter paper was placed on a cup (diameter: 10 cm, height: 4 cm) with a lid and moistened with 8 ml of chemical solution, and seeds were sown thereon, and after covering with a lid, grown in a constant temperature room.
The herbicidal effects were visually evaluated, 6 days after the treatment, as the herbicidal effect (%), by comparing with a state of an untreated group using a total of 21 scores of withering index from 0 to 20 (0: mortality rate equivalent to that of the untreated group, 20: mortality rate of 100%).
In addition, the expected values of the herbicidal effects were calculated from the herbicidal effects in a case where the compound (I) alone was applied and the herbicidal effects in a case where the compound (II) alone was applied by using the Colby's formula (Colby, S. R., Calculating synergistic and antagonistic responses of herbicide combinations, Weeds, 15, pp. 20-22 (1967)).
M indicates an herbicidal effect (%) in the application of the compound (I) alone, N indicates an herbicidal effect (%) in the application of the compound (II) alone, and E indicates an expected value (%) of the herbicidal effect in the combined application of the compound (T) and the compound (TT). When the actual measured value (%) of the herbicidal effect in the combined application of the compound (I) and the compound (II) is greater than the expected value E, it can be regarded that the combined application of the compound (I) and the compound (II) has a synergistic effect.
The herbicidal effects were evaluated by the same method as in Test Example 1 except that the seeds used in the test were changed from Ambrosia artemisiifolia to Abutilon theophrasti.

Triticum aestivum = assay: Test Example 5: spraying on the soil surface, herbicidal effect from above ground weight (useful plant); conditions: Compound (I-3) alone, sprayed on the soil surface, seven weeks after spraying
Protocol: as §1, §2
(§3) Herbicidal effect (%)=[(above ground weight of weeds in untreated area)−(above ground weight of weeds in treated area)/(above ground weight of weeds in untreated area)]×100
(§4) A test emulsion was prepared in the same manner as in Test Example 4.
(§5) A 300 cm^2 pot was filled with soil, and seeds of Triticum aestivum, multidrug-resistant Alopecurus myosuroides, Lolium multiflorum and Avena fatua were sown into the surface layer, and covered with soil to a thickness of 0.5 to 1 cm. The above test emulsion was diluted so that the amount of the active ingredient became a predetermined amount, and sprayed on the soil surface at a spray water volume of 250 L per hectare, followed by growth in an outdoor environment.
(§6) Seven weeks after spraying, the evaluation was carried out in the same manner as in Test Example 4, except that the above ground weights of weeds in the untreated and treated areas were measured for each weed.
The following plants were used as useful plants [scientific names]. • Wheat [Triticum aestivum]

[1] = tested on: multidrug-resistant Alopecurus myosuroides; assay: Test Example 5: spraying on the soil surface, herbicidal effect from above ground weight; conditions: Compound (I-3) alone, sprayed on the soil surface, seven weeks after spraying, Alopecurus myosuroides multidrug-resistant strain
Protocol: as §1, §2, §3, §4, §5, §6
(§7) The following grass species were used as grass species to be controlled [scientific names]. • Blackgrass * [Alopecurus myosuroides] • Italian ryegrass [Lolium multiflorum] • Wild oat [Avena fatua]

Avena fatua = assay: as above; conditions: Compound (I-3) alone, sprayed on the soil surface, seven weeks after spraying
Protocol: as §1, §2, §3, §4, §5, §6, §7

Lolium multiflorum = assay: as above; conditions: Compound (I-3) alone, sprayed on the soil surface, seven weeks after spraying
Protocol: as §1, §2, §3, §4, §5, §6, §7

COC12OC1(c1ccc(C(F)(F)F)c3c1CCCS3(=O)=O)C=NN(C)C2=O (centres unmarked) [Compound (I-3), 1-methoxy-3-methyl-6-(1,1-dioxido-8-(trifluoromethyl)thiochroman-5-yl)-7-oxa-3,4-diazabicyclo[4.1.0]hept-4-en-2-one]
Actual measured value of herbicidal effect (Zea mays): 0%
Herbicidal effect (Abutilon theophrasti; 0.2 ppm): 75%
Herbicidal effect (Abutilon theophrasti; 3.1 ppm): 75%
Actual measured value of herbicidal effect (Triticum aestivum; 63 gai/ha): 0%
Actual measured value of herbicidal effect (Triticum aestivum; 125 gai/ha): 0%
Actual measured value of herbicidal effect ([1]; 63 gai/ha): 0%
Actual measured value of herbicidal effect ([1]; 125 gai/ha): 30%
Actual measured value of herbicidal effect (Avena fatua; 63 gai/ha): 0%
Actual measured value of herbicidal effect (Avena fatua; 125 gai/ha): 20%
Actual measured value of herbicidal effect (Lolium multiflorum; 63 gai/ha): 60%
Actual measured value of herbicidal effect (Lolium multiflorum; 125 gai/ha): 80%
